Experiment [1] is described as follows: Inhibitory concentration against Selectin E in a dynamic flow assay.
Assay in experiment [2]: as above
The source holds these as a separate data set.

pIC50: −log10 of the molar value.

For the compound `COC(=O)CCCCCCCCO[C@@H]1O[C@@H](CO)[C@@H](O[C@@H]2O[C@@H](CO)[C@H](O)[C@H](O[C@@H](CC3CCCCC3)C(=O)O)[C@@H]2O)[C@H](O[C@@H]2O[C@@H](C)[C@@H](O)[C@H](O)[C@@H]2O)[C@@H]1NC(=O)c1ccc(OC)c(OC)c1` [Sialyl Lewis X Analogue], the pIC50 (in general, the IC50 on a negative log10 scale, so that one unit is a factor of ten) in experiment [1] is 5.00. For the compound `C[C@@H]1O[C@@H](O[C@@H]2[C@H](CO)OCC[C@H]2O[C@@H]2O[C@@H](CO)[C@H](O)[C@H](O[C@@H](CC3CCCCC3)C(=O)O)[C@@H]2O)[C@@H](O)[C@@H](O)[C@@H]1O` [Sodium; (R)-3-cyclohexyl-2-{3,5-dihydroxy-2-hydroxymethyl-6-[2-hydroxymethyl-3-(3,4,5-trihydroxy-6-methyl-tetrahydro-pyran-2-yloxy)-tetrahydro-pyran-4-yloxy]-tetrahydro-pyran-4-yloxy}-propionate], the pIC50 in experiment [2] is 4.52.

(Values after BindingDB's records for doi:10.1016/s0960-894x(01)00092-0 (Novartis Pharma, 2001).)
